Experimental findings from patent US20240401154A1, “SYNTHESIS AND PREPARATION OF ULTRA-LOW VISCOSITY AND HIGH MAGNETIC SUSCEPTIBILITY MAGNETIC IONIC LIQUIDS” (priority 2023, published 2024) are described below.

Holding throughout (format): physicochemical
The nature of data set [1]: Thermal stability, MIL as GC stationary phase with FID. The settings on record: exponential increase in response beyond 2,000 pA. On the procedure: (§1) The thermal stability of MILs was measured from 40 to 350° C. at a ramp rate of 5° C. min^−1 by performing thermogravimetric analysis (TGA) using a NETZSCH STA 449 F1 Jupiter thermal analyzer (Selb, Germany). To further investigate the thermal stability of MILs using a more sensitive technique, the solvents were employed as a gas chromatographic (GC) stationary phase and subjected to an oven temperature program from 40 to 200° C. at a ramp rate of 1° C. min^−1 and decomposition/degradation products detected using an ultra-sensitive flame ionization detector (FID), with all measurements being performed on an Agilent Technologies 7890B gas chromatograph (Santa Clara, CA, USA).
To further investigate the thermal stability of MILs using a more sensitive technique, the solvents were employed as a gas chromatographic (GC) stationary phase and subjected to an oven temperature program from 40 to 200° C. at a ramp rate of 1° C. min^−1 and decomposition/degradation products detected using an ultra-sensitive flame ionization detector (FID).

A short description of data set [2]: Effective magnetic moment from magnetic susceptibility balance (MSB). The settings on record: per formula unit. On the procedure:
Magnetic properties were analyzed using a magnetic susceptibility balance (MSB, Sherwood Scientific, Cambridge, UK) and a Quantum Design Superconducting Quantum Interference Device (SQUID) magnetometer (MPMS XL-7). The magnetic properties of transition metal MILs were further studied using a SQUID magnetometer to confirm their paramagnetic nature as well as if any magnetic transition occurs in the samples.
Magnetic susceptibility (XM) was calculated through Equation (1).
Effective magnetic moment (μeff) was calculated through Equation (2). In Equation (2), T represents the temperature at which the magnetic susceptibility measurements were conducted.
15 MILs incorporating rare-earth and transition metals were examined using a magnetic susceptibility balance (MSB).

A short description of data set [3]: Solubility of MILs in organic solvents and water. The source says: The solubility of lanthanide and transition metal MILs was investigated in popular traditional organic solvents. […]
The solubility of lanthanide and transition metal MILs was investigated in popular traditional organic solvents.

Data set [4] in a line: Thermal stability by thermogravimetric analysis (TGA). The settings on record: TGA at 10% weight loss. On the procedure: as §1
Volitization/degradation of MILs as a function of temperature were measured using thermogravimetric analysis. The thermal stability of magnetic ionic liquids was measured from 40 to 350° C. at a ramp rate of 5° C. min^−1 by performing thermogravimetric analysis (TGA) using a NETZSCH STA 449 F1 Jupiter thermal analyzer (Selb, Germany).
To investigate the ability of DGE-based MILs to withstand elevated temperatures without undergoing degradation/decomposition, their thermal stabilities were investigated using thermogravimetric analysis (TGA). FIG. 13 through FIG. 27 display thermograms for MILs 1 to 15. The thermogram results are summarized in greater detail in the following paragraphs.

Data set [5] in a line: Viscosity, Brookfield DVI cone and plate viscometer. The settings on record: 21.7° C.; neat MIL dried 48 hours under vacuum. As for the experimental part:
A Brookfield DVI cone and plate viscometer equipped with a CPA-51Z cone spindle was employed to obtain viscosity measurements at […] using approximately 0.5 g of each MIL after extensive drying for 48 hours under vacuum. Viscosity measurements were conducted at 21.7° C. for 15 lanthanide and transition metal MILs examined in this study.
Viscosity measurements were conducted at 21.7° C. for 15 lanthanide and transition metal MILs examined in this study.

The mark [6] stands for this setting: acetone, chloroform, dichloromethane, acetonitrile, methanol, ethanol, diethyl ether, ethyl acetate, isopropanol at 20% (w/v).
[7] abbreviates: hexane, heptane, benzene, toluene at 10% (w/v).
The mark [8] stands for this setting: hexane, heptane, benzene, toluene at 20% (w/v).
Where [9] appears, read: twelve organic solvents (without acetonitrile) at 50% (w/v).

As for `CCCCCCCCOC(=O)COCC(=O)OCCCCCCCC.CCCCCCCCOC(=O)COCC(=O)OCCCCCCCC.CCCCCCCCOC(=O)COCC(=O)OCCCCCCCC.CCCCCCCCOC(=O)COCC(=O)OCCCCCCCC.CCCCCCCCOC(=O)COCC(=O)OCCCCCCCC.CCCCCCCCOC(=O)COCC(=O)OCCCCCCCC.O=C(C=C([O-])C(F)(F)F)C(F)(F)F.O=C(C=C([O-])C(F)(F)F)C(F)(F)F.O=C(C=C([O-])C(F)(F)F)C(F)(F)F.O=C(C=C([O-])C(F)(F)F)C(F)(F)F.O=C(C=C([O-])C(F)(F)F)C(F)(F)F.O=C(C=C([O-])C(F)(F)F)C(F)(F)F.[Ni+2].[Ni+2].[Ni+2]` [compound 5], the “Onset of MIL volatilization (° C.)^1” value in data set [1] is 190 °C. For the same compound, the “μeff, effective magnetic moment” value in data set [2] is given as 5.33 μB. Moreover, the Solubility entry in data set [3] (setting [6]) is “S^b (soluble in acetone, chloroform, dichloromethane, acetonitrile, methanol, ethanol, diethyl ether, ethyl acetate, and isopropanol at 20% (w/v).)”; in data set [3] (setting [7]), “S^a (soluble in hexane, heptane, benzene, and toluene at 10% (w/v).)”; in data set [3] (setting [8]), “S^c (soluble in hexane, heptane, benzene, and toluene at 20% (w/v).)”; in data set [3] (setting [9]) it was “S^d (soluble in acetone, chloroform, dichloromethane, methanol, ethanol, diethyl ether, ethyl acetate, isopropanol hexane, heptane, benzene, and toluene at 50% (w/v).)”; in data set [3] (water at 0.01% (w/v)), “S^f (insoluble in water at 0.01% (w/v).)”. In addition, in data set [4], the “Onset of MIL volatilization (° C.)^2” value amounted to 264.4 °C. Further, the “Viscosity (cP)” value in data set [5] was determined as 119.1 cP.
With `CCCCCCCCOC(=O)COCC(=O)OCCCCCCCC.CCCCCCCCOC(=O)COCC(=O)OCCCCCCCC.CCCCCCCCOC(=O)COCC(=O)OCCCCCCCC.CCCCCCCCOC(=O)COCC(=O)OCCCCCCCC.CCCCCCCCOC(=O)COCC(=O)OCCCCCCCC.CCCCCCCCOC(=O)COCC(=O)OCCCCCCCC.O=C(C=C([O-])C(F)(F)F)C(F)(F)F.O=C(C=C([O-])C(F)(F)F)C(F)(F)F.O=C(C=C([O-])C(F)(F)F)C(F)(F)F.O=C(C=C([O-])C(F)(F)F)C(F)(F)F.O=C(C=C([O-])C(F)(F)F)C(F)(F)F.O=C(C=C([O-])C(F)(F)F)C(F)(F)F.[Mn+2].[Mn+2].[Mn+2]` [compound 6], in data set [1], the “Onset of MIL volatilization (° C.)^1” value came out at 182 °C. The “μeff, effective magnetic moment” value in data set [2] was determined as 10.25 μB. For the same compound, the Solubility entry in data set [3] (setting [6]) is “S^b (soluble in acetone, chloroform, dichloromethane, acetonitrile, methanol, ethanol, diethyl ether, ethyl acetate, and isopropanol at 20% (w/v).)”; in data set [3] (setting [7]) it was “S^a (soluble in hexane, heptane, benzene, and toluene at 10% (w/v).)”; in data set [3] (setting [8]), “S^c (soluble in hexane, heptane, benzene, and toluene at 20% (w/v).)”; in data set [3] (setting [9]), “S^d (soluble in acetone, chloroform, dichloromethane, methanol, ethanol, diethyl ether, ethyl acetate, isopropanol hexane, heptane, benzene, and toluene at 50% (w/v).)”; in data set [3] (water at 0.01% (w/v)) it was “S^f (insoluble in water at 0.01% (w/v).)”. Moreover, in data set [4], the “Onset of MIL volatilization (° C.)^2” value amounted to 259.1 °C. The “Viscosity (cP)” value in data set [5] is reported as 96.3 cP.
Turning to `O=C(C=C([O-])C(F)(F)F)C(F)(F)F.O=C(C=C([O-])C(F)(F)F)C(F)(F)F.O=C(C=C([O-])C(F)(F)F)C(F)(F)F.O=C(C=C([O-])C(F)(F)F)C(F)(F)F.O=C(C=C([O-])C(F)(F)F)C(F)(F)F.O=C(C=C([O-])C(F)(F)F)C(F)(F)F.O=C(COCC(=O)OC1CCCCC1)OC1CCCCC1.O=C(COCC(=O)OC1CCCCC1)OC1CCCCC1.O=C(COCC(=O)OC1CCCCC1)OC1CCCCC1.O=C(COCC(=O)OC1CCCCC1)OC1CCCCC1.O=C(COCC(=O)OC1CCCCC1)OC1CCCCC1.O=C(COCC(=O)OC1CCCCC1)OC1CCCCC1.[Co+2].[Co+2].[Co+2]` [compound 7], the “Onset of MIL volatilization (° C.)^1” value in data set [1] was found to be 133 °C. Moreover, the “μeff, effective magnetic moment” value in data set [2] was found to be 8.11 μB. The Solubility result is “S^b (soluble in acetone, chloroform, dichloromethane, acetonitrile, methanol, ethanol, diethyl ether, ethyl acetate, and isopropanol at 20% (w/v).)” in data set [3] (setting [6]); “S^e (insoluble in acetonitrile at 50% (w/v).)” in data set [3] (acetonitrile at 50% (w/v)); “S^a (soluble in hexane, heptane, benzene, and toluene at 10% (w/v).)” in data set [3] (setting [7]); “S^c (soluble in hexane, heptane, benzene, and toluene at 20% (w/v).)” in data set [3] (setting [8]); “S^d (soluble in acetone, chloroform, dichloromethane, methanol, ethanol, diethyl ether, ethyl acetate, isopropanol hexane, heptane, benzene, and toluene at 50% (w/v).)” in data set [3] (setting [9]); “S^f (insoluble in water at 0.01% (w/v).)” in data set [3] (water at 0.01% (w/v)). For the same compound, in data set [4], the “Onset of MIL volatilization (° C.)^2” value turned out to be 200.1 °C. For the same compound, the “Viscosity (cP)” value in data set [5] was found to be 639.4 cP.
In the case of `O=C(C=C([O-])C(F)(F)F)C(F)(F)F.O=C(C=C([O-])C(F)(F)F)C(F)(F)F.O=C(C=C([O-])C(F)(F)F)C(F)(F)F.O=C(C=C([O-])C(F)(F)F)C(F)(F)F.O=C(C=C([O-])C(F)(F)F)C(F)(F)F.O=C(C=C([O-])C(F)(F)F)C(F)(F)F.O=C(COCC(=O)OC1CCCCC1)OC1CCCCC1.O=C(COCC(=O)OC1CCCCC1)OC1CCCCC1.O=C(COCC(=O)OC1CCCCC1)OC1CCCCC1.O=C(COCC(=O)OC1CCCCC1)OC1CCCCC1.O=C(COCC(=O)OC1CCCCC1)OC1CCCCC1.O=C(COCC(=O)OC1CCCCC1)OC1CCCCC1.[Ni+2].[Ni+2].[Ni+2]` [compound 8], the “Onset of MIL volatilization (° C.)^1” value in data set [1] worked out at 154 °C. In data set [2], the “μeff, effective magnetic moment” value is listed as 5.53 μB. The Solubility result in data set [3] (setting [6]) was “S^b (soluble in acetone, chloroform, dichloromethane, acetonitrile, methanol, ethanol, diethyl ether, ethyl acetate, and isopropanol at 20% (w/v).)”; in data set [3] (acetonitrile at 50% (w/v)) it was “S^e (insoluble in acetonitrile at 50% (w/v).)”; in data set [3] (setting [7]) it was “S^a (soluble in hexane, heptane, benzene, and toluene at 10% (w/v).)”; in data set [3] (setting [8]), “S^c (soluble in hexane, heptane, benzene, and toluene at 20% (w/v).)”; in data set [3] (setting [9]), “S^d (soluble in acetone, chloroform, dichloromethane, methanol, ethanol, diethyl ether, ethyl acetate, isopropanol hexane, heptane, benzene, and toluene at 50% (w/v).)”; in data set [3] (water at 0.01% (w/v)), “S^f (insoluble in water at 0.01% (w/v).)”. Further, the “Onset of MIL volatilization (° C.)^2” value in data set [4] was found to be 182.2 °C. Moreover, the “Viscosity (cP)” value in data set [5] turned out to be 827.6 cP.
